Results as given in patent US10407431B2, “Compounds and compositions as toll-like receptor 7 agonists” (NOVARTIS AG, priority 2014, dated 2019).

Target: human TLR7 (Homo sapiens (Human), UniProt Q9NYK1)
Experiment: Reporter Gene Assay (HEK293 stably transfected with human TLR7 and NF-kB-driven luciferase reporter)
Assay type: cell-based
Conditions: HEK293 cells stably transfected with human TLR7 and pNifty-Luciferase; 7 hours incubation; EC50 relative to the activity of resiquimod set to 100%
Procedure: As a control assay, normal Hek293 transfected with pNifty-Luc were used. […] Bright-Glo™ Luciferase assay buffer and substrate were supplied by Promega #E263B and #E264B (assay substrate and buffer respectively). 384 well clear-bottom plates were supplied by Greiner bio-one (#789163-G) and were custom bar-coded plates.
Cells were plated at 25,000 cells/well in 384-well plates in a final volume of 50 μl of media. Cells were allowed to adhere to the plates after overnight (18 hours) culture at 37° C. and 5% CO2. Serially diluted experimental and positive control compounds were then dispensed to each well and incubated for 7 hours at 37° C. and 5% CO2. Cells stimulated with DMSO alone also serve as negative controls. After the incubation, 30 μl of the pre-mix assay buffer and substrate buffer were added to each well according to manufacturer's instructions. The luminescence signal was read on a CLIPR machine with an integration time of 20 seconds per plate.

Sequence of human TLR7 (Q9NYK1 27-1049): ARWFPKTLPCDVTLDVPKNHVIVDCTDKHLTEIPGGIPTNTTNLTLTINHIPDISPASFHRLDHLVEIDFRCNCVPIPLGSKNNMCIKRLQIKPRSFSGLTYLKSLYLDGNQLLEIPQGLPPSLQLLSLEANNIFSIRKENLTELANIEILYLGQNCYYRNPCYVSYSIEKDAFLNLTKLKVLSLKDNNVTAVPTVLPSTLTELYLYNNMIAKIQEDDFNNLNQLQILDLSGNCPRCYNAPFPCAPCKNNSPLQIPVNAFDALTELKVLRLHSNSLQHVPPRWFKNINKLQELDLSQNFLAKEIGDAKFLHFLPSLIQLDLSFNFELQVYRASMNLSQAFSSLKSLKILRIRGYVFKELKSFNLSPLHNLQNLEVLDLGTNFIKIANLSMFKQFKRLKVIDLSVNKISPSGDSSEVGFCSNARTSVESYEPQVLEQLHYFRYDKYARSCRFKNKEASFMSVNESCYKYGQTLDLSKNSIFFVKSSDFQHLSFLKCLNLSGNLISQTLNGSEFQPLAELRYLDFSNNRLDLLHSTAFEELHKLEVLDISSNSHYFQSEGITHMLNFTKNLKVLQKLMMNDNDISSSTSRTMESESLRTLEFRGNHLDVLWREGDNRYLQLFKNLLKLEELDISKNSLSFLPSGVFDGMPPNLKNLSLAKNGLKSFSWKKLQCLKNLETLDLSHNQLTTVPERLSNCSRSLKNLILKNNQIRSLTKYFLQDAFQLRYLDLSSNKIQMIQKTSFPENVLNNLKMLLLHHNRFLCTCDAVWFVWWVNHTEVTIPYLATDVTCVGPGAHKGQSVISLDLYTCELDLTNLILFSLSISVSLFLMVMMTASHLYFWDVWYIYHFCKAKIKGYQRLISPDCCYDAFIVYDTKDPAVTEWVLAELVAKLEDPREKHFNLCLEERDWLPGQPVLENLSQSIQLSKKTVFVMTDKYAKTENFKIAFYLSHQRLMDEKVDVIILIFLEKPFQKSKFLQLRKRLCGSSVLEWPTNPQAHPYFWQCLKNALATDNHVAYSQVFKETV

Structure (SMILES) | EC50 [µM]
CCCC[C@@H](CO)Nc1nc(N)nc2ccn(Cc3ccc(CN4CCNCC4)cc3OC)c12 [Example 33, (S)-2-((2-amino-5-(2-methoxy-4-(piperazin-1-ylmethyl)benzyl)-5H-pyrrolo[3,2-d]pyrimidin-4-yl)amino)hexan-1-ol] | 0.007
CCCCCNc1nc(N)nc2ccn(Cc3cc(N)ccc3OC)c12 [Example 34, 5-(5-amino-2-methoxybenzyl)-N4-pentyl-5H-pyrrolo[3,2-d]pyrimidine-2,4-diamine] | 0.001
